In brackets after ≈: the same amount, converted by molar mass.
How the values were obtained:
Format in all cases: cell-based
Porphyromonas gingivalis [1] = assay: MBC (minimum bactericidal concentration) determination, plating on blood agar; settings: P. gingivalis, lowest concentration that killed at least 99.9% of initial inoculum
Experimental: (§1) In vitro tests were conducted with a gram positive supragingival plaque bacterium, Streptococcus mutans. In addition, two subgingival plaque bacteria associated with oral malodor were tested, Porphyromonas gingivalis and Fusobacterium nucleatum. The MIC (Minimum Inhibitory Concentrations) study protocol is as follows. Chlorhexidine was used as a positive control and sterile water was used as a negative control. Geraniol was suspended in 10% methanol with 3.8% Tween 80. […] 96 well microtiter plates were used for this study. Each well contained 5×10^5 colony forming units/ml of bacteria, serially diluted agents and bacterial growth medium. All bacterial cultures were incubated at 37° C. and stationary. Bacterial growth was estimated spectrophotometrically at 660 nm, after 48 hours. The MIC for each test bacteria was defined as the minimum concentration of test compound limiting turbidity to […]. The MBC (Minimum bactericidal concentrations) were determined using the 96 well microtiter plate serial dilutions as described above for MIC studies. Serial dilution of cultures in wells showing no visible growth were performed and 10 microliters of culture were plated in triplicate on blood agar plates. Viable colonies were scored after incubation of the plates for 48 hours at 37° C. For each test bacterium, the number of CFU/ml were determined in the initial inoculum. The MBC was defined as the lowest concentration of a test compound that killed at least 99.9% of the cells present in the initial inoculum.

Fusobacterium nucleatum [2] = assay: as above; settings: F. nucleatum, lowest concentration that killed at least 99.9% of initial inoculum
Experimental: as §1

Porphyromonas gingivalis [3] = assay: MIC (minimum inhibitory concentration) study, 96 well microtiter plates; settings: P. gingivalis, 48 hours at 37° C., turbidity at 660 nm
Experimental: (§2) In vitro tests were conducted with a gram positive supragingival plaque bacterium, Streptococcus mutans. In addition, two subgingival plaque bacteria associated with oral malodor were tested, Porphyromonas gingivalis and Fusobacterium nucleatum. The MIC (Minimum Inhibitory Concentrations) study protocol is as follows. Chlorhexidine was used as a positive control and sterile water was used as a negative control. Geraniol was suspended in 10% methanol with 3.8% Tween 80. […] 96 well microtiter plates were used for this study. Each well contained 5×10^5 colony forming units/ml of bacteria, serially diluted agents and bacterial growth medium. All bacterial cultures were incubated at 37° C. and stationary. Bacterial growth was estimated spectrophotometrically at 660 nm, after 48 hours. The MIC for each test bacteria was defined as the minimum concentration of test compound limiting turbidity to […].

Fusobacterium nucleatum [4] = assay: as above; settings: F. nucleatum, 48 hours at 37° C., turbidity at 660 nm
Experimental: as §2

Streptococcus mutans [5] = assay: MBC (minimum bactericidal concentration) determination, plating on blood agar; settings: S. mutans, lowest concentration that killed at least 99.9% of initial inoculum
Experimental: as §1

Streptococcus mutans [6] = assay: MIC (minimum inhibitory concentration) study, 96 well microtiter plates; settings: S. mutans, 48 hours at 37° C., turbidity at 660 nm
Experimental: as §2

SMILES | MBC (Porphyromonas gingivalis [1]) [µg/mL] | MBC (Fusobacterium nucleatum [2]) [µg/mL] | MIC (Porphyromonas gingivalis [3]) [µg/mL] | MIC (Fusobacterium nucleatum [4]) [µg/mL] | MBC (Streptococcus mutans [5]) [µg/mL] | MIC (Streptococcus mutans [6]) [µg/mL]
[H]/N=C(\N/C(=N/[H])NCCCCCCNC(=N)NC(=N)Nc1ccc(Cl)cc1)Nc1ccc(Cl)cc1 [Cholorhexidine, Chlorhexidine, reference compound] | 1.25 (≈ 2.47 µM) | 1.25 (≈ 2.47 µM) | 1.25 (≈ 2.47 µM) | 1.25 (≈ 2.47 µM) |  | 
CC(C)=CCC/C(C)=C/CO [geraniol] | 125 (≈ 810 µM) | 125 (≈ 810 µM) | 125 (≈ 810 µM) | 125 (≈ 810 µM) | 250 (≈ 1620 µM) | 500 (≈ 3240 µM)

Reference: patent US20040253189A1, “Breath Freshening and Oral Cleansing Product Using Geraniol” (priority 2002, published 2004)
